This is an account of results in PubChem BioAssay (NCI).

Where “and” joins values, the source holds several entries; their conditions need not be identical. Equal entries are not always repeated.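 The compound was tested at five concentrations on cells cultured in 96-well plates, with a 48-hour exposure period. At the GI50, growth is halved. TGI: total growth inhibition.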

Holding throughout (experiment): NCI anticancer screen, dose series, 48 h
Experiment [1] deals with A498 renal.
The subject of experiment [2] is CCRF-CEM leukemia.
Experiment [3] concerns EKVX NSCLC.
The subject of experiment [4] is HCC-2998 colon.
The subject of experiment [5] is MCF7 breast.
For experiment [6], the system named is NCI-H226 lung.
The subject of experiment [7] is NCI-H460 lung.
The test system of experiment [8] is OVCAR-4 ovarian.
Experiment [9] relates to TK-10 renal.
Experiment [10] concerns UO-31 renal.

On to `CCc1nc(C(N)=O)c(Nc2ccc(N3CCC(N4CCN(C)CC4)CC3)c(OC)c2)nc1NC1CCOCC1`, for which the GI50 in experiment [1] was 0.96 µM and 0.165 µM and 0.931 µM; in experiment [2] it was 3.76 µM and 0.901 µM and 7.12 µM; in experiment [3], 0.83 µM and 0.375 µM and 0.727 µM; in [4] it was 8.08 µM and 1.4 µM and 8.55 µM; in experiment [5], 0.672 µM and 0.258 µM and 0.493 µM; in experiment [6] it was 5.45 µM and > 10 µM and 5.78 µM. Also, the GI50 is 1.37 µM and 0.501 µM and 1.27 µM in experiment [7]; 12.8 µM and > 10 µM and 13.8 µM in experiment [8]; 1.75 µM and 0.23 µM and 1.35 µM in [9]; 1.01 µM and 0.282 µM and 1.23 µM in experiment [10]. The TGI in [1] is 4.41 µM and 0.6 µM and 4.9 µM; in experiment [2], 30.1 µM and > 10 µM and 44.4 µM; in experiment [3], 18.2 µM and > 4.97 µM and 19 µM; in experiment [4], 22.2 µM and > 3.14 µM and 23.5 µM; in experiment [5], 17.2 µM and > 10 µM and 17.7 µM; in [6], 28.8 µM and > 10 µM and 30 µM. The TGI was 17.4 µM and > 10 µM and 19.5 µM in [7]; 27.8 µM and > 10 µM and 32.2 µM in experiment [8]; 8.61 µM and > 10 µM and 8.63 µM in [10].
